Reference: patent publication US6897238B2, “Topical aminolevulinic acid-photodynamic therapy for the treatment of acne vulgaris” (General Hospital Corporation, priority 2000, dated 2005)

Experiments:
sebaceous glands [1] = experiment: Histologic examination and planimetry of punch biopsies; settings: for Reduction of cytoplasm/nuclear cross-section area ratio in sebocyte relative to non-treatment: 3 weeks
pilosebaceous units = experiment: ALA-induced PpIX fluorescence in skin (fluorescence microscopy / photography); assay type: in vivo, human
Procedure: Punch biopsy specimens (4 mm) were taken immediately after PDT, a few weeks after PDT, and at 20 weeks from both the untreated control and ALA-PDT areas. […] Histologic examination was performed. […] To determine the level of PpIX converted from ALA in the pilosebaceous units, punch biopsy specimens were also taken from ALA-treated areas after 3 h occlusion as described above.

[2] = Adverse effects, clinical evaluation and subjective sensation; assay type: in vivo, human; settings: for Subjects with burning sensation / Subjects with itching: multiple ALA-PDT
Procedure: Adverse effects were scored by clinical evaluation of erythema, edema, loss of epidermis, hyperpigmentation, hemorrhage, vesiculation, and exfoliation on a visual-analogue scale from 0 to 3 (0=absent, 1=mild, 2=moderate, 3=severe) for each finding. Subjective sensation of pain, burning, and itching was generally maximum about 10 minutes into light exposure, and was ranked at that time and the end of treatment (1 hour), by subjects on a scale from 0 to 3 similar to above.

sebaceous glands [3] = experiment: Sebum excretion rate (SER) by Sebutape; settings: ALA plus red light
acne vulgaris [4] = experiment: Global clinical-improvement grading by blinded dermatologists from photographs; assay type: in vivo, human
Procedure: (§1) Sites were marked withtemplates to precisely relocate each test area. […] Then, 20% topical ALA in a hydroalcoholic vehicle (Levulan, a gift from DUSA pharmaceutical) was applied for 3h under occlusion with plastic film (Saran wrap), and 150 J/cm^2 broad band light (550-700 nm) was given to the ALA-PDT and light alone areas. […] In both groups, subjects returned one week after treatments for clinical evaluations and at weeks 2, 3, 10 and 20 for clinical, fluorescence, and SER evaluations.
Clinical improvement was globally assessed by 3 dermatologists unaware of the status of treatment, who blindly graded changes in acne from fixed-magnification clinical photographs, after being shown a small set standardized series of training slides not used in the data evaluation. The grading scale was defined as −3 for >50% exacerbation, −2 for 25^+−50% exacerbation, −1 for 1^+−25% exacerbation, 0 if unchanged, 1 for 1^+−25% improvement, 2 for 25^+−50% improvement, 3 for 50^+−75% improvement, 4 for 75^+−99% improvement, and 5 for 100% improvement, as compared to the baseline.
(§2) Statistical significance was defined as p value of less than 0.05.

P. acnes = experiment: Fluorescence photography of follicular bacterial porphyrin (red fluorescent dots); assay type: in vivo, human
Procedure: as §1
A Nikon E2N digital camera body with a Nikon 105 mm macro lens was used. A filter (Corion LL-550S) was placed on the lens to block light below 550 nm. The excitation light source was composed of two synchronized photoflashes with Norman 400 watt-second lampheads (FT400/FT6), mounted on a stationary tower with angles of incidence of 60 degrees bilaterally. Two 400 nm bandpass filters with 5 nm bandwidth (Corion S40-400S) were placed on the flashes. By this method, the punctate orange-red fluorescence of hair follicles populated with P. acnes was seen. Fluorescence emission has been attributed to bacterial coproporphyrin III and protoporphyrin IX, and intensity of fluorescence is related to the P. acnes population. Fluorescence photography was performed at week, 0, 2, 3, 10 and 20 in all sites. The number of punctate red flourescent dots was counted blindly for each test area.
as §2

acne vulgaris [5] = experiment: Inflammatory acne score, open-label human study of topical ALA-PDT on the back
[6] = multiple treatment group, 20 weeks after the last treatment
[7] = twenty weeks after a single ALA-PDT treatment
[8] = multiple-treatment subjects, after 4 treatments
[9] = single-treatment subjects, at 20 weeks
[10] = multiple treatments, ALA plus red light
[11] = single treatment, ALA plus red light

NCC(=O)CCC(=O)O [ALA, 5-aminolevulinic acid]
Reduction of sebaceous gland size compared with untreated control area (sebaceous glands [1]; 3 weeks after multiple ALA-PDT): 55% | Reduction of sebaceous gland size compared with untreated control area (sebaceous glands [1]; 3 weeks after single ALA-PDT): 30% | Histologic finding in sebaceous gland lobules (sebaceous glands [1]; 20 weeks after multiple ALA-PDT treatments): complete destruction or 25 marked atrophy of sebaceous gland lobules | Reduction of sebaceous gland size, mean decrease (sebaceous glands [1]; immediately after PDT): 40% | Reduction of cytoplasm/nuclear cross-section area ratio in sebocyte relative to non-treatment (sebaceous glands [1]; multiple PDT): 56% | Reduction of sebaceous gland size (sebaceous glands [1]; [6]): 45% | Reduction of sebaceous gland size, range (sebaceous glands [1]; [6]): 15-80% | Reduction of sebocyte cytoplasm/nuclear area (sebaceous glands [1]; [6]): 46% | Reduction of sebocyte cytoplasm/nuclear area, range (sebaceous glands [1]; [6]): 39-53% | Reduction of cytoplasm/nuclear cross-section area ratio in sebocyte relative to non-treatment (sebaceous glands [1]; single PDT): 38% | Reduction of sebaceous gland size, mean decrease (sebaceous glands [1]; [7]): 17% | Sebocyte cytoplasm/nuclear area ratio (sebaceous glands [1]; [7]): not reduced | Porphyrin fluorescence of fresh-frozen sections compared with untreated skin (pilosebaceous units; after ALA application, 3 h occlusion, fluorescence microscopy): bright porphyrin fluorescence in epidermis and pilosebaceous units | PpIX fluorescence, sebocytes versus follicular epithelial cells (pilosebaceous units; after ALA application, fluorescence microscopy): brighter PpIX fluorescence in sebocytes than in the adjacent follicular epithelial cells | ALA-induced PpIX fluorescence, acne lesions versus surrounding tissue (pilosebaceous units; fluorescence photography): greater in acne lesions than surrounding tissue | Patients with acute eruption of inflammatory acneiform lesions ([2]; ALA-PDT sites only, both groups): 100% | Exfoliation after 3 weeks post treatment ([2]; all subjects): None of the subjects had exfoliation | Scarring ([2]; all subjects, both groups): no site in any subject had any scarring | Erythema and edema, time course ([2]; both groups, 1 hour after treatment): substantial decrease in erythema and edema by 1 hour after treatment | Subjects with burning sensation ([2]; treatment 1): 9% | Subjects with itching ([2]; treatment 1): 73% | Subjects with burning sensation ([2]; treatment 2): 67% | Subjects with itching ([2]; treatment 2): 73% | Subjects with burning sensation ([2]; treatment 3): 67% | Subjects with itching ([2]; treatment 3): 55% | Subjects with burning sensation ([2]; treatment 4): 73% | Subjects with itching ([2]; treatment 4): 55% | Subjects still showing some degree of pigmentation ([2]; multiple PDT, 20 weeks after treatment): 55% | Patients who could not continue the weekly treatment scheme and had to postpone their next treatment ([2]; multiple treatment group): Six | Acneiform lesions induced by subsequent treatments ([2]; multiple-treatment group): almost no new acneiform lesions were observed after treatment 4 | Duration of transient purpura, average [2, 8]: 1 week | Subjects with superficial but very prominent exfoliation, transient purpura and partial loss of epidermis [2, 8]: 10% | Main subjective discomfort ([2]; single ALA-PDT group): itching was the main discomfort in the single ALA-PDT group, and pain was the least | Subjects in whom erythema faded away completely [2, 9]: 82% | Subjects in whom hyperpigmentation faded away completely [2, 9]: 91% | Sebum excretion after PDT (summary) (sebaceous glands [3]): eliminated for several weeks, and decreased for 20 weeks | SER, multiple versus single treatment group (sebaceous glands [3]; difference significant only at 20 weeks, all visits combined p=0.001): suppressed SER more than single ALA-PDT | SER, difference to the other 3 areas (sebaceous glands [3]; multiple treatments): statistically significant at all 4 visits | Sebum excretion rate (SER) versus baseline (sebaceous glands [3]; multiple treatments): significant decrease in SER, at all follow-up visits | SER versus the other test sites (sebaceous glands [3]; single treatment): significantly lower than any other test sites, at each follow-up visit | Sebum excretion rate (SER) versus baseline (sebaceous glands [3]; single treatment, weeks 2, 3, 20): significant decrease of SER | Global clinical-improvement score, multiple versus single treatment group (acne vulgaris [4]; ALA plus red light, first 2 follow-up visits (week 1 & 2)): significantly better improvement than the single ALA-PDT treatment group | Duration of obvious and significant improvement of acne, blinded clinical assessment (acne vulgaris [4]; after 4 treatments): at least 20 weeks | Duration of obvious and significant improvement of acne, blinded clinical assessment (acne vulgaris [4]; after a single ALA-PDT treatment): at least 10 weeks | Global clinical-improvement score versus baseline (acne vulgaris [4]; multiple treatments, ALA alone, visit 2 and visit 5): improvement reaching statistical significance | Global clinical-improvement score versus baseline (acne vulgaris [4]; [10]): Significant improvement | Global clinical-improvement score versus the other 3 sites (acne vulgaris [4]; [10]): significantly better improvement in the ALA-PDT treated site than the other 3 sites, at all follow-up visits | Global clinical-improvement score versus baseline (acne vulgaris [4]; [11]): significant global improvement starting week 3 and extending through week 20 | Global clinical-improvement score, difference to the other three treatment sites (acne vulgaris [4]; [11]): statistically significant at weeks 3 and 10 | Fluorescence related to P. acnes, multiple versus single treatment group (P. acnes; ALA plus red light, four times versus single): better, but not significant, improvement | Duration of significant decrease of fluorescence of endogenous porphyrins associated with P. acnes (P. acnes; after both single and multiple ALA-PDT): at least 20 weeks | Fluorescence related to P. acnes versus baseline (P. acnes; multiple treatments, ALA alone, week 10 and 20): significantly greater fluorescence than baseline | Fluorescence related to P. acnes versus baseline (P. acnes; [10]): significant loss of P. acnes, fluorescence, starting at follow-up visit 2 | Fluorescence related to P. acnes, difference to the other 3 test sites (P. acnes; [10]): statistically significant for all visits | Fluorescence related to P. acnes versus baseline (P. acnes; [11]): significant loss of fluorescence related to P. acnes, which lasted for all 4 follow-up visits | Fluorescence related to P. acnes, difference to the other 3 test sites (P. acnes; [11]): statistically significant for all visits | Inflammatory acne score, multiple versus single treatment group, all follow-up visits combined (acne vulgaris [5]; ALA alone, P=0.007): better improvement than the single treatment group | Inflammatory acne score, multiple versus single treatment group (acne vulgaris [5]; ALA plus red light, first 3 follow-up visits): significantly better improvement than the single ALA-PDT treatment group | Inflammatory acne score, multiple versus single treatment group, all follow-up visits combined (acne vulgaris [5]; ALA plus red light, p<0.001): better improvement than the single treatment group | Duration of clinical and statistically significant clearance of inflammatory acne (acne vulgaris [5]; after a single treatment): ≥ 10 weeks | Duration of clinical and statistically significant clearance of inflammatory acne (acne vulgaris [5]; after multiple ALA-PDT treatments): at least 20 weeks | Inflammatory acne score, change from baseline (acne vulgaris [5]; multiple (4 weekly) treatments, ALA plus red light): obvious and statistically significant improvement in acne at all follow-up visits | Inflammatory acne score, change from baseline (acne vulgaris [5]; multiple treatments, ALA alone, no light): no improvement | Inflammatory acne score, change from baseline versus the other three sites (acne vulgaris [5]; multiple treatments, ALA plus red light, all visits, p<0.05): significantly greater | Inflammatory acne score, ALA alone versus untreated area (acne vulgaris [5]; multiple treatments, visit 2 (week 2) only, p=0.046): barely-significant improvement | Inflammatory acne score, change from baseline (acne vulgaris [5]; single treatment, 20% topical ALA 3 h occlusion + 150 J/cm^2 red light): improvement in acne, which was statistically significant starting 3 weeks after treatment | Inflammatory acne score, change from baseline (acne vulgaris [5]; single treatment, ALA alone, no light, all visits): slightly worse acne not significantly different than baseline | Inflammatory acne score, change from baseline versus the other three areas (acne vulgaris [5]; [11]): the differences were statistically significant at 3, 10, 20 weeks
